Test results taken from patent US12090225B2 (Avalyn Pharma Inc., priority 2018, dated 2024).

Columns and labels:
[1] = 7 day stability testing of salts (40° C./75% RH, 80° C., ambient light; HPLC purity, XRPD); type: physicochemical; details: for Purity (%) / XRPD pattern after 7 day stability testing: listed as HBr salt
Procedure: High Performance Liquid Chromatography-Ultraviolet Detection (HPLC-UV): Instrument: Dionex Ultimate 3000; Column: Acquity CSH C18 100 mm×2.1 mm 1.7 μm; Column Temperature: 50° C.; Autosampler Temperature: Ambient; UV wavelength: 210 nm; Injection Volume: 4 μL; Flow Rate: 0.6 mL/min; Mobile Phase A: 0.1% formic acid in water; Mobile Phase B: 0.1% formic acid in acetonitrile. The HPLC method used the gradient in Table 2.
FT-IR appeared to be consistent with the structure. […] The material was physically stable to changes in temperature and humidity when stored for one week.
A new, poorly crystalline pattern was produced when stored at 40° C./75% RH—Pattern 4.
Purity of these materials remained unchanged (as shown in Table) apart from the sample stored at ambient light, where a 0.5% drop in purity was observed.

[2] = Disproportionation/hydration studies (pH, XRPD pattern); type: physicochemical; details: for pH Pre-Agitation: listed as HBr salt
Source text: No XRPD data could be compiled on the hydration or disproportionation of the salt due to the high solubility in water and acetone/water mixtures.
The salt only remained Pattern 1 at 0.3 aw. New patterns 6 and 7 are likely hydrated due to the high water activity conditions for production.

[3] = Aqueous solubility assessment of salts; type: physicochemical; details: primary screen samples
[4] = Citrate buffer formulation; type: physicochemical
[5] = Solid state and chemical stability of nintedanib HBr and HCl salts through 6 months; type: physicochemical; details: for Weight loss: TGA/DSC
Source text: Table 24 and Table 25 summarize the total impurities (by HPLC), polymorphic form (by X-ray powder diffraction) and, where applicable, weight loss (by TGA/DSC) for both the HCl and HBr salt forms. […] There were no changes in polymorphic form for both salt forms stored at 25 C/60% RH condition.

[6] = Feasibility assessment of ready-to-use nintedanib HBr, HCl and esylate formulations; type: physicochemical; details: NaCl at 30 mM or higher concentrations
[7] = Inhaled pharmacokinetics of nintedanib salt forms (intratracheal); type: in vivo, C57BL/6 mice; details: 1 mg/kg (base equivalent) IT, mice; listed as nintedanib hydrobromide
[8] = Therapeutic bleomycin model: dose levels and lung pharmacokinetic comparison; type: in vivo, Sprague Dawley rats; details: rat
[9] = Therapeutic silica model: dose levels and lung pharmacokinetic comparison; type: in vivo, C57BL/6 mice; details: Oral Gavage (PO) 30.0 mg/kg; mice
Procedure: Briefly, acclimated 20-22 g female C57BL/6 mice were administered silica on day 1 by the intratracheal route. On the tenth day, treatment was initiated with either saline or nintedanib. […] Sham and silica control groups received saline either IN or PO. Five animals were enrolled into sham groups, 10 animals enrolled into each PO dose groups, and 13 animals were enrolled into each IN dosing group. […] All animals were euthanized on day 30d. Body weights were collected throughout the study, with lung weights at termination. Flexivent was performed to determine elastance (lung function; Table 59). Left lungs were extracted, stained as assessed for parenchymal collagen (Table 60) and α-smooth muscle actin (αSMA; Table 61), while right lungs were assessed for interleukin-1β (IL-1β; Table 62).
Intranasal (IN) dose levels were selected by comparing lung pharmacokinetics following IN dosing to lung pharmacokinetics determined following 30 mg/kg oral gavage (PO).

[10] = Formulation development/optimization and long-term stability of nintedanib HBr and HCl formulations
[11] = Plasma and lung pharmacokinetics of nintedanib esylate, oral vs intratracheal aerosol; type: in vivo, C57BL/6 mice; details: for Lung Cmax / plasma AUC as fraction of the 100 mg/kg oral dose: mice
[12] = Human inhaled dose projection vs Ofev 150 mg oral; details: human projection
[13] = Therapeutic silica model: body and lung weights; type: in vivo, C57BL/6 mice; details: oral 30 mg/kg BID and inhaled (IN) 0.021-[…] QD nintedanib HBr
Procedure: Briefly, acclimated 20-22 g female C57BL/6 mice were administered silica on day 1 by the intratracheal route. On the tenth day, treatment was initiated with either saline or nintedanib. […] Sham and silica control groups received saline either IN or PO. Five animals were enrolled into sham groups, 10 animals enrolled into each PO dose groups, and 13 animals were enrolled into each IN dosing group. […] Body weights were collected throughout the study, with lung weights at termination. Flexivent was performed to determine elastance (lung function; Table 59). Left lungs were extracted, stained as assessed for parenchymal collagen (Table 60) and α-smooth muscle actin (αSMA; Table 61), while right lungs were assessed for interleukin-1β (IL-1β; Table 62). As expected, all mice administered silica lost weight from days 0 to 4. All silica administered mice began to recover from weight loss at around day 6 and continued recovery reaching their initial weight by day 10 (first therapeutic intervention). […] Neither oral or inhaled (IN) treatment or vehicles altered these characteristics.

[14] = cited from earlier work
[15] = 0.5 mg/mL citrate buffer experiments, listed as HBr
[16] = 40° C./75% RH, 2 months, listed as Nintedanib HBr salt
[17] = 40° C./75% RH, 6 months, listed as Nintedanib HBr salt

## COC(=O)c1ccc2c(c1)NC(=O)/C2=C(\Nc1ccc(N(C)C(=O)CN2CCN(C)CC2)cc1)c1ccccc1 [Nintedanib HBr]
[1]; 40° C./75% RH, 7 day stability testing
  Purity (%): 99.7%
[1]; 40° C./75% RH
  XRPD pattern after 7 day stability testing: mixture of Pattern 1 and 4
[1]; 80° C. and ambient conditions/light
  XRPD pattern after 7 day stability testing: remain Pattern 1
[1]; 80° C., 7 day stability testing
  Purity (%): 99.6%
[1]; Ambient, 7 day stability testing
  Purity (%): 99.2%
[1]; Input
  Purity (%): 99.7%
[1]; stored at ambient light, 7 day
  drop in purity: 0.5%
[2]; Water Activity 0.3
  Pattern (disproportionation/hydration): 1
[2]; Water Activity 0.3 (acetone/water)
  pH Pre-Agitation: 4.84
[2]; Water Activity 0.6
  Pattern (disproportionation/hydration): 4
[2]; Water Activity 0.6 (acetone/water)
  pH Pre-Agitation: 5.38
[2]; Water Activity 0.9
  Pattern (disproportionation/hydration): New pattern (Pattern 6)
[2]; Water Activity 0.9 (acetone/water)
  pH Pre-Agitation: 5.56
[2]; Water Activity 1
  Pattern (disproportionation/hydration): New pattern (Pattern 7)
[2]; Water Activity 1.0 (water)
  pH Pre-Agitation: 2.27
[3]
  pH (aqueous solubility measurement): 3.95
[3]; water, thermodynamic from solid, read-out: Solubility (aqueous)
  solubility: ~5000 µg/mL
[4]; [15]
  Initial pH: 4.83
  pH 1 h: 4.82
[4]; pH 4.8 buffer, ca. 0.5 mg/mL (Nintedanib)
  attempt to solubilize in citrate buffer: unsuccessful
[5]; 25° C./60 % RH, 1 week
  Polymorphic form: Pattern 1
[5]; 25° C./60 % RH, 1 week, listed as Nintedanib HBr salt
  Total impurities: 0.40%
[5]; 25° C./60 % RH, 2 months
  Polymorphic form: Pattern 1
[5]; 25° C./60 % RH, 2 months, listed as Nintedanib HBr salt
  Total impurities: 0.42%
[5]; 25° C./60 % RH, 4 weeks
  Polymorphic form: Pattern 1
[5]; 25° C./60 % RH, 4 weeks, listed as Nintedanib HBr salt
  Total impurities: 0.33%
[5]; 25° C./60 % RH, 6 months
  Polymorphic form: Pattern 1
[5]; 25° C./60 % RH, 6 months, listed as Nintedanib HBr salt
  Total impurities: 0.47%
[5]; 25° C./60 % RH, Initial
  Polymorphic form: Pattern 1
[5]; 25° C./60 % RH, Initial, listed as Nintedanib HBr salt
  Weight loss: 0.23%
[5]; 40° C./75% RH, 1 week, listed as Nintedanib HBr salt
  Total impurities: 0.43%
[5]; 40° C./75% RH, 2 months
  Weight loss: 4.12%
[5]; [16]
  Polymorphic form: Pattern 4
  Total impurities: 0.41%
[5]; 40° C./75% RH, 4 weeks
  Weight loss: 1.33%
[5]; 40° C./75% RH, 6 months
  Weight loss: 3.72%
[5]; [17]
  Polymorphic form: Pattern 4
  Total impurities: 0.44%
[5]; 40° C./75% RH, Initial, listed as Nintedanib HBr salt
  Weight loss: 0.23%
[6]
  compatibility with NaCl: Neither Nintedanib HBr nor Nintedanib HCl is compatible
[7]
  lung half-life: about 4 minutes
[8]; Oropharyngeal (OP) 0.05 mg/kg
  Lung AUC: 1.6 mg·h/kg
  Lung Cmax: 1.4 µg/g
[8]; Oropharyngeal (OP) 0.25 mg/kg
  Lung AUC: 7.8 mg·h/kg
  Lung Cmax: 7.0 µg/g
[8]; Oropharyngeal (OP) 0.375 mg/kg
  Lung AUC: 11.6 mg·h/kg
  Lung Cmax: 10.5 µg/g
[9]
  Lung AUC: 7.4 mg·h/kg
  Lung Cmax: 1.1 µg/g
[10]
  compatibility with citric acid, fumaric acid: incompatible
  upper concentration limit (no re-crystallization): 1.38 mg/mL

## COC(=O)c1ccc2c(c1)NC(=O)/C2=C(\Nc1ccc(N(C)C(=O)CN2CCN(C)CC2)cc1)c1ccccc1 [Nintedanib, methyl (3Z)-3-[[4-[methyl-[2-(4-methylpiperazin-1-yl)acetyl]amino]anilino]-phenylmethylidene]-2-oxo-1H-indole-6-carboxylate]
[11]; 0.5 mg/kg IT compared to 100 mg/kg oral
  less IT nintedanib to achieve the same lung Cmax as oral delivery: about 200 fold
[11]; 2.5 mg/kg IT
  Lung Cmax: 57.5 mcg/gram
[11]; 2.5 mg/kg inhaled (IT)
  plasma AUC as fraction of the 100 mg/kg oral dose: about 1/9
[11]; 10 mg/kg inhaled (IT)
  plasma AUC as fraction of the 100 mg/kg oral dose: ⅓
[11]; 100 mg/kg oral
  Lung Cmax: 12.1 mcg/gram
[12]
  device loaded dose resulting in the same lung AUC as the 150 mg oral dose: 0.04 mg
  device loaded dose resulting in the same plasma AUC as a 150 mg oral dose: 0.42 mg
[13]
  lung weights compared to control mice: Neither oral nor inhaled (IN) nintedanib significantly affected lung weights
[14]; in vivo
  administered nintedanib excreted in the urine: About 80%
[14]; oral nintedanib
  oral bioavailability: 5%
